{"source": "patent US8183239B2", "about": "“Substituted piperazines and piperidines as modulators of the neuropeptide Y2 receptor” (Janssen Pharmaceutica NV, priority 2005, dated 2012)", "data": [{"biological_target": "T1, Y2 receptors (Homo sapiens, UniProt P49146)", "T1 construct": "endogenous in cells; host or cells: KAN-Ts cells (membranes)", "T1 sequence (P49146 1-381)": "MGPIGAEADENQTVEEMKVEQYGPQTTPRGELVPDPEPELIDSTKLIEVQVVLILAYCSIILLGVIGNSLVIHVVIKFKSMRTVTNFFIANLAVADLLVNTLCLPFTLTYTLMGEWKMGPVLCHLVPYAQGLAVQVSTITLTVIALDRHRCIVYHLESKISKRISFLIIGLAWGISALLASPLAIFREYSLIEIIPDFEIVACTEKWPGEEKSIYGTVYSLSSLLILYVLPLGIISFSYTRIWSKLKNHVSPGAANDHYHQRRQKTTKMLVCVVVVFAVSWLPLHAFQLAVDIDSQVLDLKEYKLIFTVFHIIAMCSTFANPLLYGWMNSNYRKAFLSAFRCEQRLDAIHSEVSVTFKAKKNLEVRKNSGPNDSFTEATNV", "experiment": "Radioligand binding assay ([125I]PYY, KAN-Ts cell membranes)", "details": "Table 1, [125I]PYY 80 pM, average of results, read-out: IC50", "in_short": "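Membranes from KAN-Ts cells endogenously expressing Y2 incubated 1 h at rt with 80 pM [^125I]PYY ± test compound in HEPES buffer with NaCl, Ca^2+ and Mg^2+. Bound radioactivity collected by filtration; specific binding defined with […]. IC50 from sigmoidal fit, averaged over 3-8 duplicate experiments.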", "units": {"IC50": "µM"}, "values": [{"smiles": "COC(=O)C(c1ccccc1)N1CCN(c2ccc(NC(=O)CCc3ccccc3)cc2)CC1", "note": "(centres unmarked) [Example 84, Phenyl-{4-[4-(3-phenyl-propionylamino)-phenyl]-piperazin-1-yl}-acetic acid methyl ester]", "IC50": 3.35}, {"smiles": "CCCC(C)C(=O)Nc1ccc(N2CCN(C(C(=O)OC)c3ccccc3)CC2)cc1", "note": "(centres unmarked) [Example 85, {4-[4-(2-Methyl-pentanoylamino)-phenyl]-piperazin-1-yl}-phenyl-acetic acid methyl ester]", "IC50": 1.3}, {"smiles": "CCCCC(=O)Nc1ccc(N2CCN(C(C(=O)OC)c3ccccc3)CC2)cc1", "note": "(centres unmarked) [Example 86, [4-(4-Pentanoylamino-phenyl)-piperazin-1-yl]-phenyl-acetic acid methyl ester]", "IC50": 4.8}, {"smiles": "COC(=O)C(c1ccccc1)N1CCN(c2ccc(NC(=O)CCC(C)C)cc2)CC1", "note": "(centres unmarked) [Example 87, {4-[4-(4-Methyl-pentanoylamino)-phenyl]-piperazin-1-yl}-phenyl-acetic acid methyl ester]", "IC50": 1.7}, {"smiles": "CCNC(=O)C(c1ccccc1)N1CCN(c2ccc(NC(=O)CCC(C)C)cc2F)CC1", "note": "(centres unmarked) [Example 88, 4-Methyl-pentanoic acid {4-[4-(ethylcarbamoyl-phenyl-methyl)-piperazin-1-yl]-3-fluoro-phenyl}-amide]", "IC50": 1}, {"smiles": "CCCCC(CC)C(=O)Nc1ccc(N2CCN(C(C(=O)NCC)c3ccccc3)CC2)c(F)c1", "note": "(centres unmarked) [Example 89, 2-Ethyl-hexanoic acid {4-[4-(ethylcarbamoyl-phenyl-methyl)-piperazin-1-yl]-3-fluoro-phenyl}-amide]", "IC50": 1.03}, {"smiles": "CCNC(=O)C(c1ccccc1)N1CCN(c2ccc(NC(=O)CCc3ccccc3)cc2F)CC1", "note": "(centres unmarked) [Example 90, N-{4-[4-(Ethylcarbamoyl-phenyl-methyl)-piperazin-1-yl]-3-fluoro-phenyl}-3-phenyl-propionamide]", "IC50": 9.7}, {"smiles": "CCNC(=O)C(c1ccccc1)N1CCN(c2ccc(NC(=O)CCN(CC)CC)cc2F)CC1", "note": "(centres unmarked) [Example 91, 3-Diethylamino-N-{4-[4-(ethylcarbamoyl-phenyl-methyl)-piperazin-1-yl]-3-fluoro-phenyl}-propionamide]", "IC50": 10}, {"smiles": "CCNC(=O)C(c1ccccc1)N1CCN(c2ccc(NC(=O)Cc3ccncc3)cc2F)CC1", "note": "(centres unmarked) [Example 92, N-Ethyl-2-{4-[2-fluoro-4-(2-pyridin-4-yl-acetylamino)-phenyl]-piperazin-1-yl}-2-phenyl-acetamide]", "IC50": 5.1}, {"smiles": "CCNC(=O)C(c1ccccc1)N1CCN(c2ccc(NC(=O)C(CC3CCCN3)C(F)(F)F)cc2F)CC1", "note": "(centres unmarked) [Example 93, N-{4-[4-(Ethylcarbamoyl-phenyl-methyl)-piperazin-1-yl]-3-fluoro-phenyl}-3,3,3-trifluoro-2-pyrrolidin-2-ylmethyl-propionamide]", "IC50": 5}, {"smiles": "CCNC(=O)C(c1ccccc1)N1CCN(c2ccc(NC(=O)C(CC3CCCCN3)C(F)(F)F)cc2F)CC1", "note": "(centres unmarked) [Example 94, N-{4-[4-(Ethylcarbamoyl-phenyl-methyl)-piperazin-1-yl]-3-fluoro-phenyl}-3,3,3-trifluoro-2-piperidin-2-ylmethyl-propionamide]", "IC50": 10}, {"smiles": "CCNC(=O)C(c1ccccc1)N1CCN(c2ccc(NC(=O)CN3CCN(C(C)C)CC3)cc2F)CC1", "note": "(centres unmarked) [Example 95, N-Ethyl-2-(4-{2-fluoro-4-[2-(4-isopropyl-piperazin-1-yl)-acetylamino]-phenyl}-piperazin-1-yl)-2-phenyl-acetamide]", "IC50": 10}, {"smiles": "CCNC(=O)C(c1ccccc1)N1CCN(c2ccc(NC(=O)C3CCN3C3CCCCC3)cc2F)CC1", "note": "(centres unmarked) [Example 96, 1-Cyclohexyl-azetidine-2-carboxylic acid {4-[4-(ethylcarbamoyl-phenyl-methyl)-piperazin-1-yl]-3-fluoro-phenyl}-amide]", "IC50": 9}, {"smiles": "CCNC(=O)C(c1ccccc1)N1CCN(c2ccc(NC(=O)/C=C\\c3ccccc3OC)cc2F)CC1", "note": "(centres unmarked) [Example 97, (Z)—N-{4-[4-(Ethylcarbamoyl-phenyl-methyl)-piperazin-1-yl]-3-fluoro-phenyl}-3-(2-methoxy-phenyl)-acryl amide]", "IC50": 1.1}]}]}
